# From BindingDB's records for doi:10.1021/jm0009437 (Institut Curie, 2000)
# pIC50: −log10 of the molar value.
# Target: T1, Gag-Pol polyprotein [588-1027]/[588-1147] (Human immunodeficiency virus 1, UniProt P04585)
# T1 construct: 588-1027; 588-1147
# Assay: HIV-1 RT Assay
# Conditions: pH 8; 37 °C
row,Compound,pIC50
1,"CCc1c(C)nc(O)c(N)c1C(=O)c1cc(C)cc(C)c1 [3-amino-4-[(3,5-dimethylphenyl)carbonyl]-5-ethyl-6-methyl-1,2-dihydropyridin-2-one]",7.00
2,"CCc1c(C)nc(O)c(N)c1Cc1cc(C)cc(C)c1 [3-amino-4-[(3,5-dimethylphenyl)methyl]-5-ethyl-6-methyl-1,2-dihydropyridin-2-one]",7.00
3,"CCc1c(C)[nH]c(=O)c([N+](=O)[O-])c1Sc1cc(C)cc(C)c1 [4-[(3,5-dimethylphenyl)sulfanyl]-5-ethyl-6-methyl-3-nitro-1,2-dihydropyridin-2-one]",7.52
